# Test results as given in patent publication US5571822A, “Antitumor compounds” (The University of North Carolina at Chapel Hill, priority 1994, dated 1996).
# Where two headings read alike, the source gives them in different places.
# Columns and labels:
# tubulin [1] = test: inhibition of radiolabeled colchicine binding to tubulin (ICB); set-up: species or system bovine; settings: evaluated only when polymerization IC50 ≤ 1.0 μM; inhibitor equimolar with [3H]colchicine, 5-fold molar excess over tubulin
# Method: Studies conducted in support of the present invention indicate that one mode of action of the 2-phenyl-4-quinolone compounds, as antitumor agents, is an ability to bind to tubulin and inhibit cell mitosis. […] […].
# […]. […] […].
# Electrophoretically homogeneous bovine brain tubulin was purified as described previously (Hamel, et al., 1984). Combretastatin A-4 was a generous gift of Dr. G. R. Pettit, Arizona State University. Dihydrocombretastatin A-4 was prepared as described previously (Getahun et al., 1992). […]
# RXF-393 = test: NCI in vitro tumor cell screen, RXF-393 renal cancer; format: cell-based; settings: Homo sapiens
# Method: (§1) Selected 2-phenyl-4-quinolones were assayed using an in vitro, disease-oriented antitumor screen run by the National Cancer Institute (NCI) (e.g., Boyd 1989). The screen involved approximately 60 different cell lines and is a useful indicator of in vivo antitumor activity for a broad variety of tumor types (Grever et al., 1992; Monks et al., 1991). The cell lines tested included cells derived from the following solid tumor types: leukemia, non-small cell lung, colon, the central nervous system (CNS), melanoma, ovarian, renal, prostate, and breast cancers.
# NCI-H226 = test: NCI in vitro tumor cell screen, NCI-H226 non-small cell lung cancer; format: cell-based; settings: Homo sapiens
# Method: as §1
# OVCAR-4 = test: NCI in vitro tumor cell screen, OVCAR-4 ovarian cancer; format: cell-based; settings: Homo sapiens
# Method: as §1
# K-562 = test: NCI in vitro tumor cell screen, K-562 leukemia; format: cell-based; settings: Homo sapiens, K562
# Method: as §1
# tubulin [2] = test: inhibition of tubulin polymerization (ITP); format: biochemical, bovine
# Method: Electrophoretically homogeneous bovine brain tubulin was purified as described previously (Hamel, et al., 1984). […] Dihydrocombretastatin A-4 was prepared as described previously (Getahun et al., 1992).
# The tubulin polymerization assay was performed as described previously (Li et al., 1994). In brief, tubulin at 1.2 mg/mL ([…]) was preincubated for 15 min at 26° C. in a 0.24 mL volume in 0.8M monosodium glutamate (pH 6.6 with NaOH in a 2M stock solution) with varying drug concentrations. The drug stock solutions were in dimethyl sulfoxide, and the final solvent concentration was 4% (v/v). […] All concentrations are in terms of the final reaction volume (0.25 mL). The reaction mixtures were chilled on ice, and […] of 10 mM GTP was added to each reaction mixture. Samples were transferred to cuvettes held at 0° C. by an electronic temperature controller in Gilford spectrophotometers. Baselines were established at 350 nm, and polymerization initiated by a temperature jump to 26° C. The jump took about 50 sec to complete. After 20 min, turbidity readings were recorded, and the temperature controller was set to 0° C. When depolymerization was complete, turbidity readings were again recorded. […] IC50 values were obtained graphically from inhibition of polymerization by different drug concentrations. Four spectrophotometers were used for each experimental sequence, with at least two control reactions (no drug) in each set.
# SK-Mel-5 = test: NCI in vitro tumor cell screen, SK-Mel-5 melanoma; format: cell-based; settings: Homo sapiens
# Method: as §1
# (§2) melonoma; SF268 and SF295, CNS tumor cell lines; DU145, prostate cancer
# [3] = test system: approximately 60 different cell lines; test: NCI in vitro disease-oriented human tumor cell screen, all cell lines; format: cell-based; settings: for GI50: Homo sapiens
# Description: The cell lines tested included cells derived from the following solid tumor types: leukemia, non-small cell lung, colon, the central nervous system (CNS), melanoma, ovarian, renal, prostate, and breast cancers.
# SF-295 = test: NCI in vitro tumor cell screen, SF-295 CNS tumor; format: cell-based
# Method: as §1, §2
# SF-268 = test: NCI in vitro tumor cell screen, SF-268 CNS tumor; format: cell-based; settings: Homo sapiens
# Method: as §1, §2
# KM202L = test: NCI in vitro tumor cell screen, KM20L2 colon cancer; format: cell-based; settings: Homo sapiens, KM-20L2
# Method: as §1
# HCT116 = test: NCI in vitro tumor cell screen, HCT116 colon cancer; format: cell-based; settings: Homo sapiens, HCT-116
# Method: as §1
# OVCAR-3 = test: NCI in vitro tumor cell screen, OVCAR-3 ovarian cancer; format: cell-based; settings: Homo sapiens
# Method: as §1
# DU-145 = test: NCI in vitro tumor cell screen, DU-145 prostate cancer; format: cell-based; settings: Homo sapiens
# Method: as §1, §2
# MDA-N = test: NCI in vitro tumor cell screen, MDA-N breast cancer; format: cell-based; settings: Homo sapiens
# Method: as §1
# [4] = ± SD, tubulin 1.2 mg/mL, 26° C., 20 min, read-out: ITP IC50 (inhibition of tubulin polymerization)
# [5] = calculated from all cell lines tested (Table II), read-out: average logGI50 (converted)
# [6] = Homo sapiens, SF-295; read-out: logGI50 (converted)
# [7] = SF-268, CNS tumor, read-out: logGI50 (converted)
# [8] = average over cell lines, read-out: average log GI50 (converted)
# [9] = values given in mM, read-out: IC50, inhibition of tubulin polymerization
SMILES,ICB (% inhibition of colchicine binding) (tubulin [1]),IC50 (tubulin [2]; [4]),GI50 (K-562),GI50 (SK-Mel-5),"GI50 [3, 5]",GI50 (SF-295; [6]),GI50 (SF-268; [7]),GI50 (KM202L),GI50 (HCT116),further results
"COc1ccc(/C=C\c2cc(OC)c(OC)c(OC)c2)cc1O [combretastatin A-4, reference compound]",94 ± 2%,,,,,,,,,
"Nc1ccc2[nH]c(-c3cccc(Cl)c3)cc(=O)c2c1 [compound 20, 3'-Chloro-6-amino-2-phenyl-4-quinolone]",,0.0061 ± 0.001 mM,,,5500 nM,,,3160 nM,,"GI50 (OVCAR-4): > 100000 nM; activity in tubulin polymerization assay, in words (tubulin [2]): moderately active"
"Nc1ccc2[nH]c(-c3cccc(C(F)(F)F)c3)cc(=O)c2c1 [compound 21, 3'-Trifluoromethyl-6-amino-2-phenyl-4-quinolone]",,> 0.04 mM,,,39800 nM,,,34700 nM,,"activity in tubulin polymerization assay, in words (tubulin [2]): inactive; IC50 (tubulin [2]; [9]): > 0.04 mM"
"COc1cccc(-c2cc(=O)c3cc(N)ccc3[nH]2)c1 [compound 22, 3'-Methoxy-6-amino-2-phenyl-4-quinolone]",,0.0087 ± 0.003 mM,,,4570 nM,,,3470 nM,,"activity in tubulin polymerization assay, in words (tubulin [2]): moderately active"
"CC(=O)Nc1ccc2[nH]c(-c3cccc(F)c3)cc(=O)c2c1 [compound 25, 3'-Fluoro-6-acetamido-2-phenyl-4-quinolone]",,,,,,,,,,"GI50 (SF-295; Homo sapiens, SF-295, read-out: logGI50 (converted)): 38900 nM; GI50 (SF-268; SF-268, read-out: logGI50 (converted)): 25700 nM"
"O=c1cc(-c2cccc(OC(F)(F)F)c2)[nH]c2ccc(N3CCCC3)cc12 [compound 29, 3'-Trifluoromethoxy-6-pyrrolinyl-2-phenyl-4-quinolone]",58 ± 5%,0.00072 ± 0.0002 mM,,,,,,,,
"COc1cccc(-c2cc(=O)c3cc(N4CCCCC4)ccc3[nH]2)c1 [compound 30, 3'-Methoxy-6-piperidinyl-2-phenyl-4-quinolone]",53 ± 6%,0.00078 ± 0.0002 mM,,,,,,,,
"COc1cccc(-c2cc(O)c3cc(N4CCOCC4)ccc3n2)c1 [compound 31, 3'-Methoxy-6-morpholinyl-2-phenyl-4-quinolone]",43 ± 10%,0.00036 ± 0.0001 mM,24.5 nM,35.5 nM,56.2 nM,49 nM,53.7 nM,33.9 nM,26.9 nM,"GI50 (NCI-H226): 33.9 nM; GI50 (OVCAR-3): 20 nM; GI50 (OVCAR-4): 6310 nM; GI50 (DU-145): 43.7 nM; antitumor activity / cytotoxicity, in words [3]: highly potent, with an antitumor activity comparable to that of compound 23; GI50 (MDA-N): 8.32 nM"
"COc1cccc(-c2cc(=O)c3cc(N4CCN(C)CC4)ccc3[nH]2)c1 [compound 32, 3'-Methoxy-6-methylpiperazinyl-2-phenyl-4-quinolone]",,0.014 ± 0.002 mM,537 nM,912 nM,1550 nM,1820 nM,1860 nM,1510 nM,437 nM,GI50 (RXF-393): 457 nM; GI50 (NCI-H226): 1510 nM; GI50 (OVCAR-4): > 10000 nM; IC50 (tubulin [2]; [9]): 0.014 mM; GI50 (DU-145): 2510 nM; GI50 (MDA-N): 200 nM
"COc1cccc(-c2cc(=O)c3cc(NC(=O)c4ccccc4)ccc3[nH]2)c1 [compound 33, 3'-Methoxy-6'-benzamido-2-phenyl-4-quinolone]",,0.0013 ± 7e-05 mM,,,,,,,,
O=c1cc(-c2ccccc2)[nH]c2cc3c(cc12)OCO3 [compound 34],26 ± 10%,0.00063 ± 0.0002 mM,,,,,,,,
"COc1ccc(CCc2cc(OC)c(OC)c(OC)c2)cc1O [dihydrocombretastatin A-4, reference compound]",65 ± 4%,0.00063 ± 3e-05 mM,,,,,,,,
"COc1cc([C@@H]2c3cc4c(cc3[C@H](O)[C@H]3COC(=O)[C@H]23)OCO4)cc(OC)c1OC [podophyllotoxin, reference compound]",84 ± 2%,,,,,,,,,

# The next lines start with results.
ICB (% inhibition of colchicine binding) (tubulin [1]),IC50 (tubulin [2]; [4]),SMILES,GI50 (K-562),GI50 (SK-Mel-5),"GI50 [3, 5]",GI50 (SF-295; [6]),GI50 (SF-268; [7]),GI50 (KM202L),GI50 (HCT116),further results
16 ± 7%,0.00073 ± 0.0002 mM,"Nc1cccc(-c2cc(=O)c3cc4c(cc3[nH]2)OCO4)c1 [compound 10, 3'-Amino-6,7-methylenedioxy-2-phenyl-4-quinolone]",891 nM,933 nM,1620 nM,2400 nM,759 nM,708 nM,479 nM,GI50 (RXF-393): 603 nM; GI50 (NCI-H226): 2190 nM; GI50 (OVCAR-4): 38900 nM
17 ± 11%,0.00065 ± 0.0001 mM,"CNc1cccc(-c2cc(=O)c3cc4c(cc3[nH]2)OCO4)c1 [compound 11, 3'-N-Methylamino-6,7-methylenedioxy-2-phenyl-4-quinolone]",398 nM,447 nM,513 nM,324 nM,5500 nM,331 nM,245 nM,GI50 (RXF-393): 363 nM; GI50 (NCI-H226): 537 nM; GI50 (OVCAR-3): 339 nM
26 ± 3%,0.00047 ± 0.0001 mM,"O=c1cc(-c2cccc(O)c2)[nH]c2cc3c(cc12)OCO3 [compound 12, 3'-Hydroxy-6,7-methylenedioxy-2-phenyl-4-quinolone]",724 nM,1480 nM,3090 nM,5500 nM,2290 nM,3310 nM,1820 nM,"GI50 [3, 8]: 3160 nM"
51 ± 3%,0.00053 ± 0.0001 mM,"O=c1cc(-c2cccc(F)c2)[nH]c2cc3c(cc12)OCO3 [compound 13, 3'-Fluoro-6,7-methylenedioxy-2-phenyl-4-quinolone]",339 nM,269 nM,339 nM,141 nM,661 nM,,219 nM,GI50 (NCI-H226): 955 nM; GI50 (OVCAR-3): 288 nM
45 ± 7%,0.00037 ± 3e-05 mM,"O=c1cc(-c2cccc(Cl)c2)[nH]c2cc3c(cc12)OCO3 [compound 14, 3'-Chloro-6,7-methylenedioxy-2-phenyl-4-quinolone]",,209 nM,501 nM,,,269 nM,,GI50 (OVCAR-4): > 75900 nM
26 ± 3%,0.00053 ± 0.0001 mM,"O=c1cc(-c2cccc(Br)c2)[nH]c2cc3c(cc12)OCO3 [compound 15, 3'-Bromo-6,7-methylenedioxy-2-phenyl-4-quinolone]",3470 nM,4370 nM,3310 nM,331 nM,3020 nM,3090 nM,3390 nM,"GI50 (RXF-393): 2400 nM; GI50 (NCI-H226): 3800 nM; GI50 (OVCAR-3): 4270 nM; GI50 (OVCAR-4): > 100000 nM; GI50 [3, 8]: 3160 nM"
5 ± 7%,0.00082 ± 0.0002 mM,"O=c1cc(-c2cccc(C(F)(F)F)c2)[nH]c2cc3c(cc12)OCO3 [compound 16, 3'-Trifluoromethyl-6,7-methylenedioxy-2-phenyl-4-quinolone]",,,2750 nM,,,1380 nM,,
39 ± 8%,0.00057 ± 0.0001 mM,COc1cccc(-c2cc(=O)c3cc4c(cc3[nH]2)OCO4)c1 [compound 35],,,,,,,,
29 ± 7%,0.0007 ± 3e-05 mM,CN(C)c1cccc(-c2cc(=O)c3cc4c(cc3[nH]2)OCO4)c1 [compound 36],,,,,,,,
